The values below come from PMC3188285 (Journal of Medicinal Chemistry, 2011).

One data set has as its system HeLa cells. In words: Cytotoxicity assay. The format is cell-based, human. The following applies: 10, 1, 0.1 and 0.01 μM; 24 or 48 h; triplicate.
A further data set has as its system CREBBP. The data set is classed as binding, human. Particulars: from ΔTm^obs, compound 100 μM.

Regarding `CCOc1cc(-c2c(C)noc2C)cc(C(C)O)c1` (racemic) [Compound 4d, (RS)-1-(3-(3,5-Dimethylisoxazol-4-yl)-5-ethoxyphenyl)ethanol], the “cytotoxicity in HeLa cells (MTT)” value in the data set with HeLa cells is “did not show any cytotoxicity”. The same measure, in the same setting: with `Cc1noc(C)c1-c1ccc2c(c1)CN(C)C(=O)N2` [Compound 1, 6-(3,5-dimethylisoxazol-4-yl)-3-methyl-3,4-dihydroquinazolin-2(1H)-one] the entry was “significant cytotoxicity”.

Turning to `CCOc1cc(C(=O)O)cc(-c2c(C)noc2C)c1` [Compound 4b, 3-(3,5-Dimethylisoxazol-4-yl)-5-ethoxybenzoic acid], the “selectivity for CREBBP over the BET bromodomains” value in the data set on CREBBP is given as “modest”. In the data set with HeLa cells, the “cytotoxicity in HeLa cells (MTT)” value is reported as “did not show any cytotoxicity”.
